Measured values from patent publication US20070202116A1, “Treatment of micro-organism infection” (priority 2001, published 2007).
Where two headings read alike, the source gives them in different places.

How the values were obtained:
[1] = tested on: MRSA strains (VISA and parent EMRSA-15); experiment: MIC of vancomycin in the presence of Aurograb (Table 3); format: cell-based, S. aureus; conditions: Staphylococcus aureus
Method: (§1) Strains of MRSA were grown overnight in nutrient broth and diluted to give an inoculum of 1×10^3 cells per mL. […] Cultures were incubated for a further 2 days. The minimum growth-inhibitory concentration (MIC) is defined as the […] concentration of antibiotic at which no bacterial growth occurs and is determined by spectrophotometric evaluation of the lack of turbidity (growth) in culture. MICs were determined in the presence of exogenous Aurograb or in the presence of Aurograb formulation buffer (negative control).

EMRSA strains = experiment: MIC of vancomycin or flucloxacillin with and without Aurograb (Table 3a); format: cell-based, S. aureus; conditions: Staphylococcus aureus
Method: as §1
The experiments were also performed using flucloxacillin instead of vancomycin to investigate how the efficacy of penicillin-type […] was affected by Aurograb.

Question: With CN[C@H](CC(C)C)C(=O)N[C@H]1C(=O)N[C@@H](CC(N)=O)C(=O)N[C@H]2C(=O)N[C@H]3C(=O)N[C@H](C(=O)N[C@H](C(=O)O)c4cc(O)cc(O)c4-c4cc3ccc4O)[C@H](O)c3ccc(c(Cl)c3)Oc3cc2cc(c3O[C@@H]2O[C@H](CO)[C@@H](O)[C@H](O)[C@H]2O[C@H]2C[C@](C)(N)[C@H](O)[C@H](C)O2)Oc2ccc(cc2Cl)[C@H]1O [Vancomycin, vancomycin] as the compound, how does the MIC ([1]; read-out: MIC to Vancomycin in the presence of Aurograb, Parent EMRSA-15, Aurograb 0 μg/ml) read?
Answer: 1 µg/mL

Question: And the MIC ([1]; read-out: MIC to Vancomycin in the presence of Aurograb, Parent EMRSA-15, Aurograb 80 μg/ml)?
Answer: 0.25 µg/mL

Question: What about the MIC ([1]; read-out: MIC to Vancomycin in the presence of Aurograb, Parent EMRSA-15, Aurograb 125 μg/ml) of the same compound?
Answer: < 0.125 µg/mL

Question: What about the MIC ([1]; read-out: MIC to Vancomycin in the presence of Aurograb, VISA EMRSA-1, Aurograb 0 μg/ml) of the same compound?
Answer: 8 µg/mL

Question: And the MIC ([1]; read-out: MIC to Vancomycin in the presence of Aurograb, VISA EMRSA-1, Aurograb 60 μg/ml)?
Answer: 4 µg/mL

Question: And the MIC ([1]; read-out: MIC to Vancomycin in the presence of Aurograb, VISA EMRSA-1, Aurograb 80 μg/ml)?
Answer: 2 µg/mL

Question: What about the MIC ([1]; read-out: MIC to Vancomycin in the presence of Aurograb, VISA EMRSA-1, Aurograb 125 μg/ml) of the same compound?
Answer: < 0.125 µg/mL

Question: And the MIC ([1]; read-out: MIC to Vancomycin in the presence of Aurograb, VISA EMRSA-2, Aurograb 0 μg/ml)?
Answer: 4 µg/mL

Question: What about the MIC ([1]; read-out: MIC to Vancomycin in the presence of Aurograb, VISA EMRSA-2, Aurograb 60 μg/ml) of the same compound?
Answer: 0.5 µg/mL

Question: And the MIC ([1]; read-out: MIC to Vancomycin in the presence of Aurograb, VISA EMRSA-2, Aurograb 80 μg/ml)?
Answer: 1 µg/mL

Question: What about the MIC ([1]; read-out: MIC to Vancomycin in the presence of Aurograb, VISA EMRSA-2, Aurograb 125 μg/ml) of the same compound?
Answer: < 0.125 µg/mL

Question: What about the MIC ([1]; read-out: MIC to Vancomycin in the presence of Aurograb, VISA EMRSA-8, Aurograb 0 μg/ml) of the same compound?
Answer: 8 µg/mL

Question: What about the MIC ([1]; read-out: MIC to Vancomycin in the presence of Aurograb, VISA EMRSA-8, Aurograb 60 μg/ml) of the same compound?
Answer: 2 µg/mL

Question: And the MIC ([1]; read-out: MIC to Vancomycin in the presence of Aurograb, VISA EMRSA-8, Aurograb 80 μg/ml)?
Answer: 1 µg/mL

Question: And the MIC ([1]; read-out: MIC to Vancomycin in the presence of Aurograb, VISA EMRSA-8, Aurograb 125 μg/ml)?
Answer: < 0.125 µg/mL

Question: And the MIC ([1]; read-out: MIC to Vancomycin in the presence of Aurograb, VISA EMRSA-11, Aurograb 0 μg/ml)?
Answer: 4 µg/mL

Question: And the MIC ([1]; read-out: MIC to Vancomycin in the presence of Aurograb, VISA EMRSA-11, Aurograb 60 μg/ml)?
Answer: 4 µg/mL

Question: What about the MIC ([1]; read-out: MIC to Vancomycin in the presence of Aurograb, VISA EMRSA-11, Aurograb 80 μg/ml) of the same compound?
Answer: 1 µg/mL

Question: And the MIC ([1]; read-out: MIC to Vancomycin in the presence of Aurograb, VISA EMRSA-11, Aurograb 125 μg/ml)?
Answer: < 0.125 µg/mL

Question: What about the MIC ([1]; read-out: MIC to Vancomycin in the presence of Aurograb, VISA EMRSA-12, Aurograb 0 μg/ml) of the same compound?
Answer: 8 µg/mL

Question: What about the MIC ([1]; read-out: MIC to Vancomycin in the presence of Aurograb, VISA EMRSA-12, Aurograb 60 μg/ml) of the same compound?
Answer: 4 µg/mL

Question: What about the MIC ([1]; read-out: MIC to Vancomycin in the presence of Aurograb, VISA EMRSA-12, Aurograb 80 μg/ml) of the same compound?
Answer: 2 µg/mL

Question: And the MIC ([1]; read-out: MIC to Vancomycin in the presence of Aurograb, VISA EMRSA-12, Aurograb 125 μg/ml)?
Answer: < 0.125 µg/mL

Question: And the MIC ([1]; read-out: MIC to Vancomycin in the presence of Aurograb, VISA EMRSA-15, Aurograb 0 μg/ml)?
Answer: 8 µg/mL

Question: What about the MIC ([1]; read-out: MIC to Vancomycin in the presence of Aurograb, VISA EMRSA-15, Aurograb 60 μg/ml) of the same compound?
Answer: 4 µg/mL

Question: What about the MIC ([1]; read-out: MIC to Vancomycin in the presence of Aurograb, VISA EMRSA-15, Aurograb 80 μg/ml) of the same compound?
Answer: 2 µg/mL

Question: What about the MIC ([1]; read-out: MIC to Vancomycin in the presence of Aurograb, VISA EMRSA-15, Aurograb 125 μg/ml) of the same compound?
Answer: < 0.125 µg/mL

Question: And the MIC (EMRSA strains; read-out: MIC to vancomycin + 100 μg/ml Aurograb, EMRSA strain 1, + 100 μg/ml Aurograb)?
Answer: 0.03 µg/mL

Question: What about the MIC (EMRSA strains; read-out: MIC to vancomycin + 100 μg/ml Aurograb, EMRSA strain 2, + 100 μg/ml Aurograb) of the same compound?
Answer: 0.03 µg/mL

Question: And the MIC (EMRSA strains; read-out: MIC to vancomycin + 100 μg/ml Aurograb, EMRSA strain 3, + 100 μg/ml Aurograb)?
Answer: 0.03 µg/mL

Question: What about the MIC (EMRSA strains; read-out: MIC to vancomycin + 100 μg/ml Aurograb, EMRSA strain 4, + 100 μg/ml Aurograb) of the same compound?
Answer: 0.03 µg/mL

Question: And the MIC (EMRSA strains; read-out: MIC to vancomycin + 100 μg/ml Aurograb, EMRSA strain 5, + 100 μg/ml Aurograb)?
Answer: 0.03 µg/mL

Question: What about the MIC (EMRSA strains; read-out: MIC to vancomycin + 100 μg/ml Aurograb, EMRSA strain 6, + 100 μg/ml Aurograb) of the same compound?
Answer: 0.0125 µg/mL

Question: What about the MIC (EMRSA strains; read-out: MIC to vancomycin + 100 μg/ml Aurograb, EMRSA strain 7, + 100 μg/ml Aurograb) of the same compound?
Answer: 0.03 µg/mL

Question: What about the MIC (EMRSA strains; read-out: MIC to vancomycin + 100 μg/ml Aurograb, EMRSA strain 8, + 100 μg/ml Aurograb) of the same compound?
Answer: 0.0125 µg/mL

Question: What about the MIC (EMRSA strains; read-out: MIC to vancomycin + 100 μg/ml Aurograb, EMRSA strain 9, + 100 μg/ml Aurograb) of the same compound?
Answer: 0.0125 µg/mL

Question: And the MIC (EMRSA strains; read-out: MIC to vancomycin + 100 μg/ml Aurograb, EMRSA strain 10, + 100 μg/ml Aurograb)?
Answer: 0.03 µg/mL

Question: And the MIC (EMRSA strains; read-out: MIC to vancomycin + 100 μg/ml Aurograb, EMRSA strain 11, + 100 μg/ml Aurograb)?
Answer: 0.03 µg/mL

Question: And the MIC (EMRSA strains; read-out: MIC to vancomycin + 100 μg/ml Aurograb, EMRSA strain 12, + 100 μg/ml Aurograb)?
Answer: 0.03 µg/mL

Question: What about the MIC (EMRSA strains; read-out: MIC to vancomycin + 100 μg/ml Aurograb, EMRSA strain 13, + 100 μg/ml Aurograb) of the same compound?
Answer: 0.03 µg/mL

Question: And the MIC (EMRSA strains; read-out: MIC to vancomycin + 100 μg/ml Aurograb, EMRSA strain 14, + 100 μg/ml Aurograb)?
Answer: 0.03 µg/mL

Question: And the MIC (EMRSA strains; read-out: MIC to vancomycin + 100 μg/ml Aurograb, EMRSA strain 15, + 100 μg/ml Aurograb)?
Answer: 0.03 µg/mL

Question: What about the MIC (EMRSA strains; read-out: MIC to vancomycin + 100 μg/ml Aurograb, EMRSA strain 16, + 100 μg/ml Aurograb) of the same compound?
Answer: 0.03 µg/mL

Question: What about the MIC (EMRSA strains; read-out: MIC to vancomycin, EMRSA strain 1) of the same compound?
Answer: 0.5 µg/mL

Question: And the MIC (EMRSA strains; read-out: MIC to vancomycin, EMRSA strain 2)?
Answer: 0.5 µg/mL

Question: What about the MIC (EMRSA strains; read-out: MIC to vancomycin, EMRSA strain 3) of the same compound?
Answer: 0.5 µg/mL

Question: What about the MIC (EMRSA strains; read-out: MIC to vancomycin, EMRSA strain 4) of the same compound?
Answer: 0.5 µg/mL

Question: What about the MIC (EMRSA strains; read-out: MIC to vancomycin, EMRSA strain 5) of the same compound?
Answer: 0.5 µg/mL

Question: And the MIC (EMRSA strains; read-out: MIC to vancomycin, EMRSA strain 6)?
Answer: 0.5 µg/mL

Question: And the MIC (EMRSA strains; read-out: MIC to vancomycin, EMRSA strain 7)?
Answer: 0.5 µg/mL

Question: And the MIC (EMRSA strains; read-out: MIC to vancomycin, EMRSA strain 8)?
Answer: 0.5 µg/mL

Question: And the MIC (EMRSA strains; read-out: MIC to vancomycin, EMRSA strain 9)?
Answer: 0.5 µg/mL

Question: What about the MIC (EMRSA strains; read-out: MIC to vancomycin, EMRSA strain 10) of the same compound?
Answer: 0.5 µg/mL

Question: What about the MIC (EMRSA strains; read-out: MIC to vancomycin, EMRSA strain 11) of the same compound?
Answer: 0.5 µg/mL

Question: What about the MIC (EMRSA strains; read-out: MIC to vancomycin, EMRSA strain 12) of the same compound?
Answer: 0.5 µg/mL

Question: What about the MIC (EMRSA strains; read-out: MIC to vancomycin, EMRSA strain 13) of the same compound?
Answer: 0.5 µg/mL

Question: And the MIC (EMRSA strains; read-out: MIC to vancomycin, EMRSA strain 14)?
Answer: 0.25 µg/mL

Question: And the MIC (EMRSA strains; read-out: MIC to vancomycin, EMRSA strain 15)?
Answer: 0.5 µg/mL

Question: What about the MIC (EMRSA strains; read-out: MIC to vancomycin, EMRSA strain 16) of the same compound?
Answer: 0.5 µg/mL
